For this data set the following is noted: 101.33 kPa, Liquid; for speed of sound: Sing-around technique in a fixed-path interferometer; for mass density: Vibrating tube method.

SMILES strings stand for the structures. ± gives the expanded uncertainty stated by the source.

`CCCCN` [1-butanamine]: the speed of sound (in general, the propagation velocity of pressure waves in the medium) (288.15 K) was 1296.1 ± 2.2 m/s; the speed of sound (293.15 K) is on record as 1273.6 ± 2.2 m/s; the speed of sound (298.15 K) was 1250 ± 2.2 m/s; the speed of sound (303.15 K) stood at 1228.9 ± 2.2 m/s; the speed of sound (308.15 K) was 1205.7 ± 2.2 m/s. Further, the mass density (commonly mass per unit of volume) runs as follows: (288.15 K) 742.865 ± 0.58 kg/m3; (293.15 K) 738.096 ± 0.58 kg/m3; (298.15 K) 733.301 ± 0.57 kg/m3; (303.15 K) 728.477 ± 0.57 kg/m3; (308.15 K) 723.625 ± 0.56 kg/m3.
Regarding `CCCCCCOCCOCCO` [2-(2-hexyloxyethoxy)ethanol], the speed of sound runs as follows: (288.15 K) 1405.2 ± 2.2 m/s; (293.15 K) 1388.1 ± 2.2 m/s; (298.15 K) 1371.1 ± 2.2 m/s; (303.15 K) 1354.3 ± 2.2 m/s; (308.15 K) 1337.7 ± 2.2 m/s. Also, the mass density was 936.901 ± 0.77 kg/m3 (288.15 K); 932.917 ± 0.76 kg/m3 (293.15 K); 928.926 ± 0.76 kg/m3 (298.15 K); 924.931 ± 0.75 kg/m3 (303.15 K); 920.933 ± 0.75 kg/m3 (308.15 K).
As to `CCCCN(CCCC)CCCC` [tributylamine], the speed of sound is, setting by setting: (288.15 K) 1285 ± 2.2 m/s; (293.15 K) 1266.4 ± 2.2 m/s; (298.15 K) 1247.6 ± 2.2 m/s; (303.15 K) 1229 ± 2.2 m/s; (308.15 K) 1210.4 ± 2.2 m/s. Moreover, the mass density is, setting by setting: (288.15 K) 781.336 ± 0.61 kg/m3; (293.15 K) 777.632 ± 0.61 kg/m3; (298.15 K) 773.913 ± 0.6 kg/m3; (303.15 K) 770.183 ± 0.6 kg/m3; (308.15 K) 766.44 ± 0.6 kg/m3.
Consider `CCCCNCCCC` [dibutylamine], for which the speed of sound reads like this: (288.15 K) 1289.2 ± 2.2 m/s; (293.15 K) 1269.5 ± 2.2 m/s; (298.15 K) 1246.7 ± 2.2 m/s; (303.15 K) 1226.7 ± 2.2 m/s; (308.15 K) 1207 ± 2.2 m/s. In addition, the mass density is listed as 766.115 ± 2.1 kg/m3 (288.15 K); 762.022 ± 2.1 kg/m3 (293.15 K); 757.784 ± 2.1 kg/m3 (298.15 K); 752.284 ± 2 kg/m3 (303.15 K); 748.17 ± 2 kg/m3 (308.15 K).

These data come from the NIST ThermoML archive (doi:10.1021/je800026p).
